Data on 28 compounds can be found in patent publication US10377753B2, “Substituted 4-azaindoles and their use as GluN2B receptor modulators” (Janssen Pharmaceutica NV, priority 2015, dated 2019).

Structures are written as SMILES.

Chain of cloned human NR1/NR2B ion channels (Q13224 27-1484, other chains not shown): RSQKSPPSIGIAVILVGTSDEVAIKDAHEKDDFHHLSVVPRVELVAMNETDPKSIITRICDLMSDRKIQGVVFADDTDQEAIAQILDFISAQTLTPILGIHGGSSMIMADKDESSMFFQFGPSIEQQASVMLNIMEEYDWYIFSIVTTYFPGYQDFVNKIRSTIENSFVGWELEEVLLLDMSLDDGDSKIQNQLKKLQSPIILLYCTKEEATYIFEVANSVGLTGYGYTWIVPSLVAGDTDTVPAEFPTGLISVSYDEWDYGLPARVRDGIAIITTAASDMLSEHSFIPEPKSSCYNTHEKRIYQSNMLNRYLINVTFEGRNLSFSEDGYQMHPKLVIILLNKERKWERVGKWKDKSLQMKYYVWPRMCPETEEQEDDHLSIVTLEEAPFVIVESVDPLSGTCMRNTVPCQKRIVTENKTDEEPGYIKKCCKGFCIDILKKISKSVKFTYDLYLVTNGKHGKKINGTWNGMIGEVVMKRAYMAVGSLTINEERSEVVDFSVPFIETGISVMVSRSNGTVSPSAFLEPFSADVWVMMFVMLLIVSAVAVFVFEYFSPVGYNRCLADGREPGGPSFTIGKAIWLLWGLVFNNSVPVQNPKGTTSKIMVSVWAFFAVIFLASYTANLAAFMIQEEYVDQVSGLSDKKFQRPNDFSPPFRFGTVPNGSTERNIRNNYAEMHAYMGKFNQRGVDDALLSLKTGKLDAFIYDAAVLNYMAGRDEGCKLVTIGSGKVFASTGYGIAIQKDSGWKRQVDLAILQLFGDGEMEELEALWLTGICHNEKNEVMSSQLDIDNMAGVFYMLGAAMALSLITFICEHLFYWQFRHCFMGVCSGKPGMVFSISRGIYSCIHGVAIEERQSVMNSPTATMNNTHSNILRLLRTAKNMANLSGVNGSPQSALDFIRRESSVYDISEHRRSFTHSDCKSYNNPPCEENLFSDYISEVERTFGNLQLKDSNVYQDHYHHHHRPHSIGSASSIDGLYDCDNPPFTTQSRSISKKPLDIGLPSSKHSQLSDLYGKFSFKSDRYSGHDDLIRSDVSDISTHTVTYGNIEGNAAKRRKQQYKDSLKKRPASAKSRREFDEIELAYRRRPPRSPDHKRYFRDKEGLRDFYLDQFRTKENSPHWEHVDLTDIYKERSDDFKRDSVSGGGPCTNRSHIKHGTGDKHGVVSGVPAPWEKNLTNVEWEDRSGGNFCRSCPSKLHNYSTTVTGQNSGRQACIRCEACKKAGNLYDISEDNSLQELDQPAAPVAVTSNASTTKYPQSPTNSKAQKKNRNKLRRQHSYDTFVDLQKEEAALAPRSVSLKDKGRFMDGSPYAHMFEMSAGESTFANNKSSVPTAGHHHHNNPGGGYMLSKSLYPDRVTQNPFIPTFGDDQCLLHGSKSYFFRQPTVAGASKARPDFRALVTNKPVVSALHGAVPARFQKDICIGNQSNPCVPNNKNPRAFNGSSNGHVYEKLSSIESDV

The assay has as its target cloned human NR1/NR2B ion channels (Homo sapiens (Human), UniProt Q05586+Q13224). In words: HNR2BC: effects of test articles on cloned human NR1/NR2B ion channels expressed in mammalian cells (FLIPR calcium flux). The settings on record: cloned human NR1/NR2B ion channels, Table 5. Format: cell-based. The essentials: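 Compounds were added to dye-loaded cells for 5 min with fluorescence monitored for agonism, followed by co-agonists (glutamate ~EC80, glycine 10 μM saturating) for 5 min. Cells stably expressed inducible human NR1/NR2B, and the buffer was pH 7.4. The FLIPR Ca2+ flux signal was normalized against control wells.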
Background: A change in cytosolic calcium serves as a functional read-out for many receptors and channels.
As a reminder, the IC50 is the concentration at which inhibition is half-maximal. Consider `O=C(Cn1cc(F)c2ncc(-c3ccc(F)c(F)c3F)cc21)N1CC(F)C1` [Example 486, 1-(3-Fluoroazetidin-1-yl)-2-[3-fluoro-6-(2,3,4-trifluorophenyl)pyrrolo[3,2-b]pyridin-1-yl]ethanone], for which the IC50 was 25.1 nM.
On the same count and under the same terms, the result for `O=C(Cn1cc(F)c2ncc(-c3cc(F)cc(F)c3)cc21)N1CC(F)C1` [Example 487, 2-[6-(3,5-Difluorophenyl)-3-fluoro-pyrrolo[3,2-b]pyridin-1-yl]-1-(3-fluoroazetidin-1-yl)ethanone] reads 50.1 nM; that for `Cc1c(F)ccc(-c2cnc3c(F)cn(CC(=O)N4CC(F)C4)c3c2)c1F` [Example 488, 2-[6-(2,4-Difluoro-3-methyl-phenyl)-3-fluoro-pyrrolo[3,2-b]pyridin-1-yl]-1-(3-fluoroazetidin-1-yl)ethanone], 15.8 nM.
One may read the pIC50 as −log10 of the IC50, conventionally taken in molar units. For the compound `O=C(Cn1cc(F)c2ncc(-c3cccc(Cl)c3)cc21)N1CC(F)C1` [Example 489, 2-[6-(3-Chlorophenyl)-3-fluoro-pyrrolo[3,2-b]pyridin-1-yl]-1-(3-fluoroazetidin-1-yl)ethanone], the pIC50 is on record as 8.0.
As to `O=C(Cn1cc(F)c2ncc(-c3cccc(Cl)c3F)cc21)N1CC(F)C1` [Example 490, 2-[6-(3-Chloro-2-fluoro-phenyl)-3-fluoro-pyrrolo[3,2-b]pyridin-1-yl]-1-(3-fluoroazetidin-1-yl)ethanone], the IC50 is 20 nM.
Regarding `CCc1cccc(-c2cnc3c(F)cn(CC(=O)N4CC(F)C4)c3c2)c1` [Example 491, 2-[6-(3-Ethylphenyl)-3-fluoro-pyrrolo[3,2-b]pyridin-1-yl]-1-(3-fluoroazetidin-1-yl)ethanone], the IC50 is 15.8 nM.
Still for that read-out and setting: the result for `O=C(Cn1cc(F)c2ncc(-c3cccc(F)c3)cc21)N1CC(F)C1` [Example 492, 1-(3-Fluoroazetidin-1-yl)-2-[3-fluoro-6-(3-fluorophenyl)pyrrolo[3,2-b]pyridin-1-yl]ethanone] reads 25.1 nM; that for `CN(C)C(=O)Cn1cc(F)c2ncc(-c3ccccc3F)cc21` [Example 493, 2-[3-Fluoro-6-(2-fluorophenyl)pyrrolo[3,2-b]pyridin-1-yl]-N,N-dimethyl-acetamide], 25.1 nM.
For `Cc1cccc(-c2cnc3c(F)cn(CC(=O)N(C)C)c3c2)c1F` [Example 494, 2-[3-Fluoro-6-(2-fluoro-3-methyl-phenyl)pyrrolo[3,2-b]pyridin-1-yl]-N,N-dimethyl-acetamide], the IC50 was 316 nM.
Consider `CN(C)C(=O)Cn1cc(F)c2ncc(-c3ccccc3)cc21` [Example 495, 2-(3-Fluoro-6-phenyl-pyrrolo[3,2-b]pyridin-1-yl)-N,N-dimethyl-acetamide], for which the IC50 was 12.6 nM.
On the same count and under the same terms, the result for `Cc1cccc(-c2cnc3c(F)cn(CC(=O)N(C)C)c3c2)c1` [Example 496, 2-[3-Fluoro-6-(m-tolyl)pyrrolo[3,2-b]pyridin-1-yl]-N,N-dimethyl-acetamide] reads 79.4 nM.
Take `O=C(Cn1cc(F)c2ncc(-c3ccccc3)cc21)N1CCC1` [Example 497, 1-(Azetidin-1-yl)-2-(3-fluoro-6-phenyl-pyrrolo[3,2-b]pyridin-1-yl)ethanone]: the IC50 was 31.6 nM.
In the case of `CCc1cccc(-c2cnc3c(F)cn(CC(=O)N4CCC4)c3c2)c1` [Example 498, 1-(Azetidin-1-yl)-2-[6-(3-ethylphenyl)-3-fluoro-pyrrolo[3,2-b]pyridin-1-yl]ethanone], the IC50 was 79.4 nM.
The same measure, in the same setting: the result for `CN(C)C(=O)Cn1cc(F)c2ncc(-c3cccc(C(F)(F)F)c3)cc21` [Example 499, 2-[3-Fluoro-6-[3-(trifluoromethyl)phenyl]pyrrolo[3,2-b]pyridin-1-yl]-N,N-dimethyl-acetamide] reads 25.1 nM.
As for `CN(C)C(=O)Cn1cc(F)c2ncc(-c3cccc(C(F)(F)F)c3F)cc21` [Example 500, 2-[3-Fluoro-6-[2-fluoro-3-(trifluoromethyl)phenyl]pyrrolo[3,2-b]pyridin-1-yl]-N,N-dimethyl-acetamide], the IC50 was 31.6 nM.
Turning to `CN(C)C(=O)Cn1cc(F)c2ncc(-c3ccc(F)c(F)c3F)cc21` [Example 501, 2-[3-Fluoro-6-(2,3,4-trifluorophenyl)pyrrolo[3,2-b]pyridin-1-yl]-N,N-dimethyl-acetamide], the IC50 is 39.8 nM.
On the same count and under the same terms, as for `Cc1c(F)ccc(-c2cnc3c(F)cn(CC(=O)N(C)C)c3c2)c1F` [Example 502, 2-[6-(2,4-Difluoro-3-methyl-phenyl)-3-fluoro-pyrrolo[3,2-b]pyridin-1-yl]-N,N-dimethyl-acetamide], the figure is 39.8 nM; as for `CN(C)C(=O)Cn1cc(F)c2ncc(-c3cccc(Cl)c3)cc21` [Example 503, 2-[6-(3-Chlorophenyl)-3-fluoro-pyrrolo[3,2-b]pyridin-1-yl]-N,N-dimethyl-acetamide], 15.8 nM.
Turning to `CN(C)C(=O)Cn1cc(F)c2ncc(-c3ccc(F)c(Cl)c3)cc21` [Example 504, 2-[6-(3-Chloro-4-fluoro-phenyl)-3-fluoro-pyrrolo[3,2-b]pyridin-1-yl]-N,N-dimethyl-acetamide], the IC50 was 12.6 nM.
With `CCc1cccc(-c2cnc3c(F)cn(CC(=O)N(C)C)c3c2)c1` [Example 505, 2-[6-(3-Ethylphenyl)-3-fluoro-pyrrolo[3,2-b]pyridin-1-yl]-N,N-dimethyl-acetamide], the IC50 is 20 nM.
As for `O=C(Cn1cc(F)c2ncc(-c3cccc(F)c3)cc21)N1CCC1` [Example 506, 1-(Azetidin-1-yl)-2-[3-fluoro-6-(3-fluorophenyl)pyrrolo[3,2-b]pyridin-1-yl]ethanone], the IC50 is 15.8 nM.
Same read-out and setting: as for `O=C(Cn1cc(F)c2ncc(-c3ccccc3F)cc21)N1CC(F)C1` [Example 507, 1-(3-Fluoroazetidin-1-yl)-2-[3-fluoro-6-(2-fluorophenyl)pyrrolo[3,2-b]pyridin-1-yl]ethanone], the figure is 20 nM; as for `O=C(Cn1cc(F)c2ncc(-c3ccc(F)c(C(F)(F)F)c3)cc21)N1CC(F)C1` [Example 508, 1-(3-Fluoroazetidin-1-yl)-2-[3-fluoro-6-[4-fluoro-3-(trifluoromethyl)phenyl]pyrrolo[3,2-b]pyridin-1-yl]ethanone], 126 nM.
Regarding `CN(C)C(=O)Cn1cc(F)c2ncc(-c3cc(F)cc(F)c3)cc21` [Example 509, 2-[6-(3,5-Difluorophenyl)-3-fluoro-pyrrolo[3,2-b]pyridin-1-yl]-N,N-dimethyl-acetamide], the IC50 is 31.6 nM.
Consider `CN(C)C(=O)Cn1cc(F)c2ncc(-c3cccc(F)c3)cc21` [Example 510, 2-[3-Fluoro-6-(3-fluorophenyl)pyrrolo[3,2-b]pyridin-1-yl]-N,N-dimethyl-acetamide], for which the IC50 was 39.8 nM.
Same read-out and setting: as for `CN(C)C(=O)Cn1cc(Cl)c2ncc(-c3ccccc3F)cc21` [Example 512, 2-[3-Chloro-6-(2-fluorophenyl)pyrrolo[3,2-b]pyridin-1-yl]-N,N-dimethyl-acetamide], the figure is 316 nM; as for `Cc1cccc(-c2cnc3c(Cl)cn(CC(=O)N(C)C)c3c2)c1F` [Example 513, 2-[3-Chloro-6-(2-fluoro-3-methyl-phenyl)pyrrolo[3,2-b]pyridin-1-yl]-N,N-dimethyl-acetamide], 50.1 nM.
Same read-out and setting: the result for `CN(C)C(=O)Cn1cc(Cl)c2ncc(-c3ccccc3)cc21` [Example 514, 2-(3-Chloro-6-phenyl-pyrrolo[3,2-b]pyridin-1-yl)-N,N-dimethyl-acetamide] reads 126 nM.
